Data taken from US9957276B2, “CDK inhibitors” (G1 THERAPEUTICS, INC., priority 2010, dated 2018).

Biological target: CDK2/cyclinE (Homo sapiens (Human), UniProt P24941)
Assay: CDK2/cyclinE kinase enzymatic assay (Caliper LabChip)
Type: biochemical
Details: Table 2, class symbols; read-out: CDK2/CycE IC50
Protocol: (§1) Kinase enzymatic reactions were performed in 384-well microplates using a 12-channel Caliper LabChip instrument as a detection device. […] As substrate and product are separated, two peaks of fluorescence are observed. Change in the relative fluorescence intensity of the substrate and product peaks is the parameter measured, reflecting enzyme activity. In the presence of an inhibitor, the ratio between product and substrate is altered. The signal of the product decreases, while the signal of the substrate increases.
(§2) Potential inhibitor compounds (as HCl salts) were tested using 12-point dose response curves in […] at the Km for ATP. The IC50 of each compound was determined using GraphPad Prism.

With `CC(C)C1CNC(=O)c2cc3cnc(Nc4ccc(N5CCN(C)CC5)cn4)nc3n21` (stereo not shown) [Compound 7] as the molecule, how does the IC50 read?
Its IC50 is over 100 µM.

Which IC50 does the source give for `O=C1N[C@H]2CCC[C@@H]2n2c1cc1cnc(Nc3ccc(N4CCNCC4)cn3)nc12` [Compound 49] here?
The IC50 was 1 to 100 µM.

For `CC(C)C[C@H]1CN(C)C(=O)c2cc3cnc(Nc4ccc(N5CCN(C)CC5)cn4)nc3n21` [Compound 14], which IC50 is on record?
The IC50 was over 100 µM.

Which IC50 does the source give for `CCC(C)[C@H]1CN(C)C(=O)c2cc3cnc(Nc4ccc(N5CCN(C)CC5)cn4)nc3n21` (stereo partly shown) [Compound 18] here?
The IC50 was over 100 µM.

For `CN1CCn2c(cc3cnc(Nc4ccc(N5CCNCC5)cn4)nc32)C1=O` [Compound 5], which IC50 is on record?
The IC50 was over 100 µM.

Which IC50 does the source give for `CN1CC2(CCCC2)n2c(cc3cnc(Nc4ccc(N5CCNCC5)cn4)nc32)C1=O` [Compound 31] here?
The IC50 was over 100 µM.

Which IC50 does the source give for `CCC(C)[C@H]1CN(C)C(=O)c2cc3cnc(Nc4ccc(N5CCNCC5)cn4)nc3n21` (stereo partly shown) [Compound 19] here?
The IC50 was over 100 µM.

Which IC50 does the source give for `CC(C)[C@H]1CN(C)C(=O)c2cc3cnc(Nc4ccc(N5CCNCC5)cn4)nc3n21` [Compound 11] here?
The IC50 was over 100 µM.

For `CC(C)C[C@H]1CN(C)C(=O)c2cc3cnc(Nc4ccc(N5CCNCC5)cn4)nc3n21` [Compound 15], which IC50 is on record?
The IC50 was over 100 µM.

For `CN1CCN(c2ccc(Nc3ncc4cc5n(c4n3)CCNC5=O)nc2)CC1` [Compound 1], which IC50 is on record?
Its IC50 is over 100 µM.

`CC(C)CC1CN(C)C(=O)c2cc3cnc(Nc4ccc(N5CCNCC5)cn4)nc3n21` (stereo not shown) [Compound 47] was tested. Which IC50 did it give?
The IC50 was over 100 µM.

`CN1CCN(c2ccc(Nc3ncc4cc5n(c4n3)[C@H]3CCC[C@@H]3NC5=O)nc2)CC1` [Compound 48] was tested. Which IC50 did it give?
Its IC50 is over 100 µM.

`CC(C)C1CNC(=O)c2cc3cnc(Nc4ccc(N5CCN(C(=O)OC(C)(C)C)CC5)cn4)nc3n21` (stereo not shown) [Compound 6] was tested. Which IC50 did it give?
Its IC50 is over 100 µM.

Biological target: CDK4/CyclinD (Homo sapiens (Human), UniProt P11802)
Assay: CDK4/CyclinD kinase enzymatic assay (Caliper LabChip)
Type: biochemical
Details: compounds as HCl salts, 12-point dose response, at the Km for ATP, three hours
Protocol: as §1, §2

Chain of CDK4/CyclinD (P11802 whole entry, species assumed): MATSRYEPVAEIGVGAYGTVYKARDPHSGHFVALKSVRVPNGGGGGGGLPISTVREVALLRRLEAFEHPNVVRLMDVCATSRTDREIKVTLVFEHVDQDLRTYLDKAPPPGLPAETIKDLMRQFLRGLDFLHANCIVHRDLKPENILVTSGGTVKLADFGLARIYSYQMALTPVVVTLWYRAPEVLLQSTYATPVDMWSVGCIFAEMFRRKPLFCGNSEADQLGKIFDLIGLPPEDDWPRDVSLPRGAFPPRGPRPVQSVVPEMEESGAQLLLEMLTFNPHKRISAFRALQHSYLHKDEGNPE
Chain of CDK4/CyclinD (P24385 whole entry partner, species assumed): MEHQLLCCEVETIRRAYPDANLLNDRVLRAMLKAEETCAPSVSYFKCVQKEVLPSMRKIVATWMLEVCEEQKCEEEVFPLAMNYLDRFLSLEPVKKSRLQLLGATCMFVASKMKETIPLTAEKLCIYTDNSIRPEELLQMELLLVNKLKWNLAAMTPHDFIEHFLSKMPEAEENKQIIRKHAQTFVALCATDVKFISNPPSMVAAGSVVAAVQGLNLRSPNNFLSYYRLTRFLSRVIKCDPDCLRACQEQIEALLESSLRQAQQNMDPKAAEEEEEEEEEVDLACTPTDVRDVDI

`CN1CCN(c2ccc(Nc3ncc4cc5n(c4n3)CCNC5=O)nc2)CC1` [Compound 1] was tested. Which IC50 did it give?
Its IC50 is 0.453 µM.

Same assay, conditions: from the IC50 values

With `O=C1NCCn2c1cc1cnc(Nc3ccc(N4CCNCC4)cn3)nc12` [Compound 3] as the molecule, how does the “selectivity for Cdk4/CycD1 over Cdk2/CycE” value read?
The value was 100 fold.

`CN1CCN(c2ccc(Nc3ncc4cc5n(c4n3)CCNC5=O)nc2)CC1` [Compound 1] was tested. Which “selectivity for Cdk4/CycD1 over Cdk2/CycE” value did it give?
The value was 200 fold.
